Numbers after ± are expanded uncertainties.
Experiments:
[1] = refractive index (Na D-line) (dimensionless); settings: 298.15 K; 101.33 kPa; Liquid; Standard Abbe refractometry
[2] = 298.15 K; 101.33 kPa; Liquid; Vibrating tube method

CCOS(=O)(=O)[O-].CCn1cc[n+](C)c1 [1-ethyl-3-methylimidazolium ethyl sulfate]
refractive index [1]: 1.4791 ± 0.0007 | mass density [2]: 1237.23 ± 0.43 kg/m3

CCCCCCC [heptane]
refractive index [1]: 1.38515 ± 0.00068 | mass density [2]: 679.56 ± 0.19 kg/m3

CCCCCC [hexane]
refractive index [1]: 1.37234 ± 0.0007 | mass density [2]: 655.19 ± 0.26 kg/m3

CCCCCCCCC [nonane]
refractive index [1]: 1.40326 ± 0.0007 | mass density [2]: 713.99 ± 0.25 kg/m3

CCCCCCCC [octane]
refractive index [1]: 1.39519 ± 0.00068 | mass density [2]: 698.6 ± 0.18 kg/m3

Cc1ccccc1 [toluene]
refractive index [1]: 1.49399 ± 0.00068 | mass density [2]: 862.17 ± 0.11 kg/m3

From the NIST ThermoML archive (doi:10.1016/j.jct.2010.11.013)
